Measured values as given in ChEMBL document CHEMBL4340506, “Inhibition of a viral prolyl hydroxylase” (Bioorg Med Chem, 2019).
Active and inactive are the calls of the source. No cut-off for these calls is given here. Where a SMILES comes first, the peptide text is derived from it. [ ]: non-standard residue; d: D form. Pro(cis-4-F) = O=C(O)[C@@H]1C[C@H](F)CN1; Hyp = O=C(O)[C@@H]1C[C@@H](O)CN1

Target: T1, Prolyl 4-hydroxylase (Paramecium bursaria Chlorella virus 1) (UniProt Q84406)
T1 sequence (whole entry): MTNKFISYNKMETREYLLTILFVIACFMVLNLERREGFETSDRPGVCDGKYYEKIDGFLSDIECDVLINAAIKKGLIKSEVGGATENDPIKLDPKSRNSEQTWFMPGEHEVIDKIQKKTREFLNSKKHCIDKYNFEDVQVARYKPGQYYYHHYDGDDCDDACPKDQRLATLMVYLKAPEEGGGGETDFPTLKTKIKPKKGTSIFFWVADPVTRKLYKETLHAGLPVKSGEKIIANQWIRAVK
Assay: (§1) Substrate activity at N-terminal His6-tagged recombinant Paramecium bursaria chlorella virus 1 CPH expressed in Escherichia coli Rosetta 2 (DE3) cells assessed as succinate production at 500 uM incubated for 60 s in presence of 2OG and L-ascorbate and using Fe2 as cofactor by 1H NMR spectroscopy

SMILES	Activity
C[C@H](NC(=O)[C@@H]1CCCN1)C(=O)N1CCC[C@H]1C(=O)N[C@@H](CCCCN)C(=O)N1C[C@H](O)C[C@H]1C(=O)N[C@@H](C)C(=O)N1CCC[C@H]1C(=O)N[C@@H](CCCCN)C(=O)O (H-PAPK[Hyp]APK-OH)	Active

Target: T1, Prolyl 4-hydroxylase (Paramecium bursaria Chlorella virus 1)
Assay: as §1, with “2OG and in absence of L-ascorbate and” for “2OG and L-ascorbate and”

SMILES	Activity
C[C@H](NC(=O)[C@@H]1CCCN1)C(=O)N1CCC[C@H]1C(=O)N[C@@H](CCCCN)C(=O)N1C[C@H](O)C[C@H]1C(=O)N[C@@H](C)C(=O)N1CCC[C@H]1C(=O)N[C@@H](CCCCN)C(=O)O (H-PAPK[Hyp]APK-OH)	Active

Target: T1, Prolyl 4-hydroxylase (Paramecium bursaria Chlorella virus 1)
Assay: Substrate activity at N-terminal His6-tagged recombinant Paramecium bursaria chlorella virus 1 CPH expressed in Escherichia coli Rosetta 2 (DE3) cells assessed as substrate hydroxylation at 100 uM incubated for 16 hrs in presence of 2OG by MALDI TOF MS analysis

SMILES	Activity
C[C@H](NC(=O)[C@H](Cc1ccc(O)cc1)NC(=O)[C@H](CCCCN)NC(=O)[C@@H]1C[C@@H](O)CN1C(=O)[C@H](C)NC(=O)[C@@H]1CCCN1)C(=O)N1CCC[C@H]1C(=O)N[C@@H](CCCCN)C(=O)O (H-PA[Hyp]KYAPK-OH)	inactive
C[C@H](NC(=O)[C@H](Cc1c[nH]c2ccccc12)NC(=O)[C@H](CCCCN)NC(=O)[C@@H]1C[C@@H](O)CN1C(=O)[C@H](C)NC(=O)[C@@H]1CCCN1)C(=O)N1CCC[C@H]1C(=O)N[C@@H](CCCCN)C(=O)O (H-PA[Hyp]KWAPK-OH)	inactive
CC[C@H](C)[C@H](NC(=O)[C@H](CCCCN)NC(=O)[C@@H]1C[C@@H](O)CN1C(=O)[C@H](C)NC(=O)[C@@H]1CCCN1)C(=O)N[C@@H](C)C(=O)N1CCC[C@H]1C(=O)N[C@@H](CCCCN)C(=O)O (H-PA[Hyp]KIAPK-OH)	inactive
C[C@H](NC(=O)[C@H](CCCNC(=N)N)NC(=O)[C@H](CCCCN)NC(=O)[C@@H]1C[C@@H](O)CN1C(=O)[C@H](C)NC(=O)[C@@H]1CCCN1)C(=O)N1CCC[C@H]1C(=O)N[C@@H](CCCCN)C(=O)O (H-PA[Hyp]KRAPK-OH)	inactive
CC(C)C[C@H](NC(=O)[C@H](CCCCN)NC(=O)[C@@H]1C[C@@H](O)CN1C(=O)[C@H](C)NC(=O)[C@@H]1CCCN1)C(=O)N[C@@H](C)C(=O)N1CCC[C@H]1C(=O)N[C@@H](CCCCN)C(=O)O (H-PA[Hyp]KLAPK-OH)	inactive
C[C@H](NC(=O)[C@@H]1CCCN1)C(=O)N1C[C@H](O)C[C@H]1C(=O)N[C@@H](CCCCN)C(=O)N1C[C@@H](F)C[C@H]1C(=O)N[C@@H](C)C(=O)N1CCC[C@H]1C(=O)N[C@@H](CCCCN)C(=O)O (H-PA[Hyp]K[Pro(cis-4-F)]APK-OH)	Active
C[C@H](NC(=O)[C@H](CCCCN)NC(=O)[C@@H]1C[C@@H](O)CN1C(=O)[C@H](C)NC(=O)[C@@H]1CCCN1)C(=O)N[C@@H](C)C(=O)N1CCC[C@H]1C(=O)N[C@@H](CCCCN)C(=O)O (H-PA[Hyp]KAAPK-OH)	inactive
C[C@H](NC(=O)[C@H](CC(=O)O)NC(=O)[C@H](CCCCN)NC(=O)[C@@H]1C[C@@H](O)CN1C(=O)[C@H](C)NC(=O)[C@@H]1CCCN1)C(=O)N1CCC[C@H]1C(=O)N[C@@H](CCCCN)C(=O)O (H-PA[Hyp]KDAPK-OH)	inactive
C[C@H](NC(=O)[C@H](CCC(=O)O)NC(=O)[C@H](CCCCN)NC(=O)[C@@H]1C[C@@H](O)CN1C(=O)[C@H](C)NC(=O)[C@@H]1CCCN1)C(=O)N1CCC[C@H]1C(=O)N[C@@H](CCCCN)C(=O)O (H-PA[Hyp]KEAPK-OH)	inactive
C[C@H](NC(=O)CNC(=O)[C@H](CCCCN)NC(=O)[C@@H]1C[C@@H](O)CN1C(=O)[C@H](C)NC(=O)[C@@H]1CCCN1)C(=O)N1CCC[C@H]1C(=O)N[C@@H](CCCCN)C(=O)O (H-PA[Hyp]KGAPK-OH)	inactive
C[C@H](NC(=O)[C@H](Cc1cnc[nH]1)NC(=O)[C@H](CCCCN)NC(=O)[C@@H]1C[C@@H](O)CN1C(=O)[C@H](C)NC(=O)[C@@H]1CCCN1)C(=O)N1CCC[C@H]1C(=O)N[C@@H](CCCCN)C(=O)O (H-PA[Hyp]KHAPK-OH)	inactive
CSCC[C@H](NC(=O)[C@H](CCCCN)NC(=O)[C@@H]1C[C@@H](O)CN1C(=O)[C@H](C)NC(=O)[C@@H]1CCCN1)C(=O)N[C@@H](C)C(=O)N1CCC[C@H]1C(=O)N[C@@H](CCCCN)C(=O)O (H-PA[Hyp]KMAPK-OH)	inactive
CC(C)[C@H](NC(=O)[C@H](CCCCN)NC(=O)[C@@H]1C[C@@H](O)CN1C(=O)[C@H](C)NC(=O)[C@@H]1CCCN1)C(=O)N[C@@H](C)C(=O)N1CCC[C@H]1C(=O)N[C@@H](CCCCN)C(=O)O (H-PA[Hyp]KVAPK-OH)	inactive
C[C@H](NC(=O)[C@H](CCCCN)NC(=O)[C@H](CCCCN)NC(=O)[C@@H]1C[C@@H](O)CN1C(=O)[C@H](C)NC(=O)[C@@H]1CCCN1)C(=O)N1CCC[C@H]1C(=O)N[C@@H](CCCCN)C(=O)O (H-PA[Hyp]KKAPK-OH)	inactive
C[C@H](NC(=O)[C@H](CCC(N)=O)NC(=O)[C@H](CCCCN)NC(=O)[C@@H]1C[C@@H](O)CN1C(=O)[C@H](C)NC(=O)[C@@H]1CCCN1)C(=O)N1CCC[C@H]1C(=O)N[C@@H](CCCCN)C(=O)O (H-PA[Hyp]KQAPK-OH)	inactive
C[C@H](NC(=O)[C@H](CS)NC(=O)[C@H](CCCCN)NC(=O)[C@@H]1C[C@@H](O)CN1C(=O)[C@H](C)NC(=O)[C@@H]1CCCN1)C(=O)N1CCC[C@H]1C(=O)N[C@@H](CCCCN)C(=O)O (H-PA[Hyp]KCAPK-OH)	inactive
C[C@H](NC(=O)[C@H](CO)NC(=O)[C@H](CCCCN)NC(=O)[C@@H]1C[C@@H](O)CN1C(=O)[C@H](C)NC(=O)[C@@H]1CCCN1)C(=O)N1CCC[C@H]1C(=O)N[C@@H](CCCCN)C(=O)O (H-PA[Hyp]KSAPK-OH)	inactive
C[C@H](NC(=O)[C@H](CC(N)=O)NC(=O)[C@H](CCCCN)NC(=O)[C@@H]1C[C@@H](O)CN1C(=O)[C@H](C)NC(=O)[C@@H]1CCCN1)C(=O)N1CCC[C@H]1C(=O)N[C@@H](CCCCN)C(=O)O (H-PA[Hyp]KNAPK-OH)	inactive
C[C@H](NC(=O)[C@H](Cc1ccccc1)NC(=O)[C@H](CCCCN)NC(=O)[C@@H]1C[C@@H](O)CN1C(=O)[C@H](C)NC(=O)[C@@H]1CCCN1)C(=O)N1CCC[C@H]1C(=O)N[C@@H](CCCCN)C(=O)O (H-PA[Hyp]KFAPK-OH)	inactive
C[C@H](NC(=O)[C@@H]1CCCN1)C(=O)N1C[C@H](O)C[C@H]1C(=O)N[C@@H](CCCCN)C(=O)N[C@H](C(=O)N[C@@H](C)C(=O)N1CCC[C@H]1C(=O)N[C@@H](CCCCN)C(=O)O)[C@@H](C)O (H-PA[Hyp]KTAPK-OH)	inactive

Target: T2, Prolyl 4-hydroxylase (Paramecium bursaria Chlorella virus 1, UniProt Q84406)
T2 sequence (Q84406 whole entry): T1 sequence (whole entry)
Assay: Inhibition of N-terminal His6-tagged recombinant Paramecium bursaria chlorella virus 1 CPH expressed in Escherichia coli Rosetta 2 (DE3) cells pre-incubated for 5 mins before 2OG as substrate and Fe2 as co-factor addition in presence of L-ascorbate and measured after 5 mins MALDI TOF MS analysis

SMILES	IC50 [µM]	Ki [µM]
N[C@@H](CCC(=O)O)C(=O)O [GLUTAMIC ACID]	> 1000	
O=C(O)/C=C(/CC(=O)O)C(=O)O	> 1000	
O=C(O)CNC(=O)C(=O)O [N-OXALYLGLYCINE]	21.2	48.7
O=C(O)c1ccnc(C(=O)O)c1	5.3	3.28
O=C(O)c1ccc(O)c2ncccc12	47.2	
Cc1ccsc1C(NC(=O)c1ccccc1)c1cc(Cl)c2cccnc2c1O (stereo unspecified)	> 100	
O=C(O)CNC(=O)c1c(O)n(C2CCCCC2)c(=O)n(C2CCCCC2)c1=O	13.4	7.65
O=C(O)CC[C@H](O)C(=O)O	> 500	
O=C(O)CCNc1cc(N2CCc3ccccc3CC2)nc(-c2ccccn2)n1	15.9	
O=C(O)C[C@H](O)C(=O)O	> 1000	
O=C(O)CCC(=O)O [SUCCINIC ACID]	> 1000	
O=C(O)CNC(=O)c1nc(Cl)c2ccccc2c1O	4.5	0.71
O=C(O)CNC(=O)c1ncc(-c2cccc(Cl)c2)cc1O	< 1	0.28
O=c1c(-n2ccnn2)c[nH]n1-c1cc(N2CCOCC2)ncn1 [MOLIDUSTAT]	26.8	16.1
O=C(O)CC[C@@H](O)C(=O)O	> 500	
O=C(O)CC(=O)C(=O)O [OXALOACETATE]	> 1000	
O=C(O)C[C@H](C(=O)O)[C@@H](O)C(=O)O [ISOCITRIC ACID]	284	
CC(=O)C(=O)O [PYRUVATE]	> 1000	
CC(C)(C)OC(=O)c1ccc(-n2[nH]cc(-n3ccnn3)c2=O)nc1	2.5	
O=C(O)CC(O)(CC(=O)O)C(=O)O [CITRIC ACID]	213	
CN(C)NC(=O)CCC(=O)O	> 100	
CCCCCCCCOC(=O)c1ccc(O)c2ncccc12	> 100	
O=C(O)c1c[nH]c2c(ccc3cccnc32)c1=O	15.7	
O=C(O)/C=C/C(=O)O [FUMARIC ACID]	> 1000	

Target: Hypoxia-inducible factor 1-alpha inhibitor (Homo sapiens, UniProt Q9NWT6)
Assay: Inhibition of recombinant human FIH using 2OG as substrate and Fe2 as co-factor assessed as hydroxylation incubated for 15 mins in presence of L-ascorbate by LC-MS analysis

Hypoxia-inducible factor 1-alpha inhibitor, sequence (Q9NWT6 whole entry): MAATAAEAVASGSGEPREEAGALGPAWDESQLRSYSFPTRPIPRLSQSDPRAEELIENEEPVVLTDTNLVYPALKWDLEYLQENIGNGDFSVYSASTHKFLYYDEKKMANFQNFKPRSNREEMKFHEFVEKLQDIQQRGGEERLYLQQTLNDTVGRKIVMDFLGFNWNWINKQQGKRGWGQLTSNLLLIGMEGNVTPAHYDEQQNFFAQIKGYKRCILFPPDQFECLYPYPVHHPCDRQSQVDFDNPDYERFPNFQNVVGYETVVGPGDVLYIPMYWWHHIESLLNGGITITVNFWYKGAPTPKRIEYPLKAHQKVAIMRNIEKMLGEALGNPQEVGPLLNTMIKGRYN

SMILES	IC50 [µM]
O=c1c(-n2ccnn2)c[nH]n1-c1cc(N2CCOCC2)ncn1 [MOLIDUSTAT]	31

Target: T3, Prolyl 3-hydroxylase OGFOD1 (Homo sapiens, UniProt Q8N543)
T3 sequence (Q8N543 whole entry): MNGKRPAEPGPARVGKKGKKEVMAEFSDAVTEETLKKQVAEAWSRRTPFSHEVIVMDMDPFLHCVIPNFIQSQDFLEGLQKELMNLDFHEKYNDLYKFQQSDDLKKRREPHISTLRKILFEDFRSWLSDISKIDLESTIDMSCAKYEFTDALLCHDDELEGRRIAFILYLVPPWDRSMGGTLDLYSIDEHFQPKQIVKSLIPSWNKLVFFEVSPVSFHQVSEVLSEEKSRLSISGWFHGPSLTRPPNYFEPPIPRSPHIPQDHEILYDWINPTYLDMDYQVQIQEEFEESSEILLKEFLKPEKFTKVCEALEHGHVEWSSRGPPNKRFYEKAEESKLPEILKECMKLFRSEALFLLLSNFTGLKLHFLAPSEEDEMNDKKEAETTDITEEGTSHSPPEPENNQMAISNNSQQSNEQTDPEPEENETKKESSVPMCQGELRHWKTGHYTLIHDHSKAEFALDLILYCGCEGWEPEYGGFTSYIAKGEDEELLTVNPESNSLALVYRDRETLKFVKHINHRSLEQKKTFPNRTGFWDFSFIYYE
Assay: Inhibition of recombinant human OGFOD1 using 2OG as substrate and Fe2 as co-factor assessed as hydroxylation incubated for 15 mins in presence of L-ascorbate by MALDI-TOF MS analysis

SMILES	IC50 [µM]
O=C(O)CNC(=O)c1c(O)n(C2CCCCC2)c(=O)n(C2CCCCC2)c1=O	2.1
O=c1c(-n2ccnn2)c[nH]n1-c1cc(N2CCOCC2)ncn1 [MOLIDUSTAT]	< 1
CC(C)(C)OC(=O)c1ccc(-n2[nH]cc(-n3ccnn3)c2=O)nc1	5.1
